According to patent US10233447B2, “Self-cleaving ribozymes and uses thereof” (The Children s Medical Center Corporation, priority 2003, dated 2019):
Values joined by “and” are separate entries in the source; they are usually repeats but may differ in a detail not shown here. Identical values can stand only once. “Also recorded” adds a separate entry of the source.

How the values were obtained:
N79 rz = test: microbe, parasite or virus in culture; format: cell-based, Schistosoma mansoni; settings: for EC50 / maximal fold induction / Foldmax: inhibition of ribozyme activity in cells; for maximal fold induction: read-out: Foldmax; for luciferase protein expression / induced gene expression: double N79 rz; for luciferase activity, emission: untreated 1,555, background 121
double functional N79 rz = test: In vivo induction of luciferase in retina injected with AAV carrying double N79 rz, bioluminescent imaging; set-up: species or system nude mice; settings: for luciferase expression in retina: mice with AAV carrying double functional N79, drug pellet, day 2
Protocol: FIG. 4 show effective control of gene expression in vivo using rz-based gene regulation system. […] AAV injection was done 3 weeks prior to the first imaging day (day 0). Drug-releasing pellets were implanted subcutaneously in the dorsal neck immediately after the first imaging, and released the drug over 7 days. The toyocamycin pellet contains 10 μg of drug; adenosine pellet 50 μg.
Having documented the ability of the rz-based regulation system to function in mammalian cell culture, a final important issue to be addressed was whether the intracellular machinery and ‘environment’ necessary for self-cleavage was operable in primary cells in vivo. […] After 21 days, the injected animals were imaged for luciferase gene expression using the Xenogen IVIS imager, which provides a quantitative measure ofluciferase expression based on single-photon detection (Contag, et al., 1998, Nat Med 4, 245-7). […] Two days later, all animals were then imaged for luciferase expression. […] Quantification of the photon output indicated gene expression was ‘induced’ 39, 185, and 191-fold in the three mice infected with virus carrying the functional rzs and treated with toyocamycin. […] While the retina may be particularly accessible to ‘inducer’ due to its extensive vascularization, Applicants have shown in preliminary experiments that gene regulation can be accomplished at a number of other anatomical sites in vivo (e.g., muscle and ear).
Prior to imaging, the anesthetized mice were injected with 150 μl of luciferin (30 mg/ml) and the pupils were moistened and dilated with 1% tropicamide. A series of bioluminescent images were taken for up to 30 minutes using the Xenogen IVIS imager. Photon output was quantified at the plateau of the time course using the LivingImage software. Induction in fold was calculated based on the photon output in the retina before and after drug treatment, and was normalized to the photon output from the leg muscles. Adenosine was purchased from Innovative Research of America.

293 cells = test: Transient transfection LacZ reporter assay of ribozyme self-cleavage; format: cell-based; settings: for Fold (suppression in reporter gene expression relative to the vector with inactive rz): pMD LacZ vector, functional vs inactive rz, fold=1 means no effect
Source text: The approach is critically dependent upon both the ability of a specific self-cleaving ribozyme (rz) to effect the highly efficient cleavage (>99%) of an mRNA molecule into which it is embedded, and the availability of a small molecule capable of efficiently inhibiting self-cleavage of the cis-acting rz within an intracellular milieu. A first step in our studies was to identify candidate rz sequences capable of efficient cleavage in mammalian cells in the context of an ‘expression’ vector. For this purpose, Applicantsmade use of a transient transfection assay involving a standard mammalian expression vector (Ory, et al., 1996, Proc Natl Acad Sci USA 93, 11400-6) which encodes a LacZ reporter (FIG. 1b). […] After transfection of 293 cells with these vectors, protein extracts were prepared from cells and the β-gal level quantified.
1.5 μl Fugene-6 (Roche, Basel, Switzerland) was diluted in 100 μl OPTIMEM (Gibco, Carlsbad, Calif.) and incubated for 5 minutes at room temperature. This solution was added dropwise to 0.45 μg plasmid DNA and incubated for 15 minutes. The plasmid DNA contains either a wildtype or a mutant ribozyme and a Lacz reporter gene. The DNA mixture was then added dropwise to 3×10^5 HEK 293 cells (plated the previous day in a 35 mm dish). Cells were harvested for β-galactosidase assay 24 hours following transfection.
Plasmids carrying different ribozymes were transfected into HEK293T cells and lysed 24 h later. The cell extracts were incubated with ONPG, and the amount of B-galactosidase in cell extracts was measured by quantifying the processed ONPG using a luminometer.
Cleaving activity was determined by comparing the level of −galactosidase measured in the test sample to a control comprising a point mutation (A-+G) at position 14 which attenuates ribozyme activity. Briefly, transfected HEK293 cells were lysed with a lysis solution and the extracts of cells were separated from cell debris. The extracts were then incubated with ONPG, a chromogenic substrate of β-galactosidase. […] The intensity of yellow light emission was measured with a luminometer (Miller J., Experiments in Molecular Genetics, Cold Spring Harbor Laboratory, Cold Spring Harbor, N.Y. (1972)).

[1] = system: self-cleavage of full length ribozymes; test: Catalytic rate measurement of in vitro transcribed ribozymes; format: biochemical; settings: 50 mM Tris-HCl pH7.5, 23° C.
Protocol: Ribozymes were generated by in vitro transcription in the presence of 50 uM blocking antisense oligos. Full length ribozymes were purified and the cleavage rate determined in 50 mM Tris-HCI, pH7.5 at 23° C. Kobs was calculated according to the equation F1=F0+F∞(l−e^kt).

[2] = system: a variety of other commonly used cell lines; test: Transfection of N79 rz vector into other cell lines; format: cell-based; settings: after transfection
Source text: (a) and (b) N79 functioned efficiently in a variety of cell types. Numbers are the measurements of β-gal expressed. (c) N79 functioned efficiently at some but not all positions within the vector. […] The ±signs indicate standard deviation from mean of at least four independent measurements.
In addition, the N79 rz was able to function efficiently when placed within other transcriptional units which made use of different promoters and a different reporter gene (eGFP) (FIG. 2b). As Applicants had observed in the primary screen of different rz motifs for activity in mammalian cells, N79 was able to function when placed in several, but not all locations of the pMD transcriptional unit, albeit at different efficiencies (FIG. 2c). Importantly, placement of two rz sequences in tandem, in some cases (e.g., E position) led to a dramatic suppression of reporter gene expression (FIG. 2c).

[3] = rz inserted at position A of pMD vector

O=c1[nH]c(=O)n([C@@H]2O[C@H](CO)[C@@H](O)[C@H]2O)cc1Br [5-BromoUridine]
EC50 (N79 rz; Schistosoma mansoni): 267 µM
maximal fold induction (N79 rz; Schistosoma mansoni): 16

Nc1ncnc2c1ccn2[C@@H]1O[C@H](COP(=O)(O)O)[C@@H](O)[C@H]1O [Tubercidin-monophosphate]
EC50 (N79 rz): 2 µM
Foldmax (N79 rz): 39 fold

CC[n+]1c(-c2ccccc2)c2cc(N)ccc2c2ccc(N)cc21 [Homidium bromide]
EC50 (N79 rz; Schistosoma mansoni): 2 µM
maximal fold induction (N79 rz; Schistosoma mansoni): 8

CN(C)c1ccc2cc3ccc(N(C)C)cc3nc2c1 [Acridine orange]
EC50 (N79 rz; Schistosoma mansoni): 7 µM
maximal fold induction (N79 rz; Schistosoma mansoni): 4

O=c1[nH]c(=O)n([C@@H]2O[C@H](CO)[C@@H](O)[C@H]2O)cc1F [5-FluoroUridine]
EC50 (N79 rz; Schistosoma mansoni): 5.9 µM
maximal fold induction (N79 rz; Schistosoma mansoni): 120
luciferase protein expression / induced gene expression (N79 rz; stable cell line): induced gene expression

NC(=O)c1cn([C@@H]2O[C@H](CO)[C@@H](O)[C@H]2O)c2ncnc(N)c12 [Sangivamycin]
EC50 (N79 rz; Schistosoma mansoni): 1 µM
maximal fold induction (N79 rz; Schistosoma mansoni): 38

Nc1ncnc2c1nnn2[C@@H]1O[C@H](CO)[C@@H](O)[C@H]1O [8-Azaadenosine]
EC50 (N79 rz; Schistosoma mansoni): 4 µM
maximal fold induction (N79 rz; Schistosoma mansoni): 45

Nc1ncnc2c1ccn2[C@@H]1O[C@@H]2COP(=O)(O)O[C@H]2[C@H]1O [Tubercidin-cyclic monophosphate]
EC50 (N79 rz): 34 µM
Foldmax (N79 rz): 35 fold

OC[C@H]1O[C@@H](n2cnc3cncnc32)[C@H](O)[C@@H]1O [Nebularine]
EC50 (N79 rz; Schistosoma mansoni): 10 µM
maximal fold induction (N79 rz; Schistosoma mansoni): 8

N#Cc1cn([C@@H]2O[C@H](CO)[C@@H](O)[C@H]2O)c2ncnc(N)c12 [Toyocamycin]
induced gene expression level relative to virus carrying inactive rzs (double functional N79 rz; animal showing 191-fold induction): ≤ 40%
gene expression 'induced', photon output in retina (double functional N79 rz; individual mice, functional rzs, 10 μg pellet subcutaneous, day 2, normalized to leg muscles): 39 fold and 185 fold and 191 fold
luciferase expression in retina (double functional N79 rz): readily detectable expression; also recorded: strong induction
luciferase activity, emission (N79 rz; 0.5 μM, 24 hours): 66,774 photons per second per 1000 cells
luciferase activity, emission (N79 rz; 1 μM, 24 hours): 242,546 photons per second per 1000 cells
luciferase activity, emission (N79 rz; 1.5 μM, 24 hours): 377,655 photons per second per 1000 cells
EC50 (N79 rz; Schistosoma mansoni): 0.4 µM
maximal fold induction (N79 rz; Schistosoma mansoni): 365
amount of luciferase mRNA (N79 rz; northern blot, nucleus and cytoplasm, 24 hours of treatment): increased to a level comparable to that of cells carrying inactive rz
concentrations at which toxic effects were observed (N79 rz; stable cell line, 24 hours): higher than 1.5 μM
luciferase protein expression / induced gene expression (N79 rz; stable cell line): dramatic increase

Nc1ncnc2c1ccn2[C@@H]1O[C@H](CO)[C@@H](O)[C@H]1O [Tubercidin]
EC50 (N79 rz; Schistosoma mansoni): 2.5 µM
maximal fold induction (N79 rz; Schistosoma mansoni): 58

N94: N79 with shortened stem I, SEQ ID NO: 8 (CCAGCUGAUGAGUCCCAAAUAGGACGAAACGCGCUUCGGUGCGUCCUGG; expressed or natural sequence)
cleavage activity, fold difference between functional and inactive rz (293 cells; rz at position E of pMD vector): vastly reduced

O=c1[nH]cc(F)c(=O)[nH]1 [5-FluoroUracil]
EC50 (N79 rz; Schistosoma mansoni): 200 µM
maximal fold induction (N79 rz; Schistosoma mansoni): 377
luciferase protein expression / induced gene expression (N79 rz; stable cell line): induced gene expression

Nc1ncnc2c1ccn2[C@@H]1O[C@H](COP(=O)(O)OP(=O)(O)OP(=O)(O)O)[C@@H](O)[C@H]1O [Tubercidin-triphosphate]
EC50 (N79 rz; Schistosoma mansoni): 2 µM
maximal fold induction (N79 rz; Schistosoma mansoni): 35

Nc1ncnc2c1ncn2[C@@H]1O[C@H](CO)[C@@H](O)[C@H]1O [adenosine]
luciferase expression in retina (double functional N79 rz): little if any gene expression
ability to inhibit rz self-cleavage (N79 rz): no ability

B1: Schisto hammerhead: original hammerhead Sml rz of Schistosoma mansoni lacking loop III, SEQ ID NO: 2 (nucleic acid)
chain: CUGAGAUGCAGGUACAUCCAGCUGACGAGUCCCAAAUAGGACGAAACGCGCGUCCUGGAUUCCACUGCUAUCCAC
modifications: expressed or natural sequence
Fold (suppression in reporter gene expression relative to the vector with inactive rz) (293 cells): 1 fold
cleavage activity, fold difference between functional and inactive rz (293 cells; [3]): no activity

B2: N79: N73 ribozyme transferred to position E of the vector, SEQ ID NO: 5 (nucleic acid)
chain: CUGAGAUGCAGGUACAUCCAGCUGAUGAGUCCCAAAUAGGACGAAACGCGCUUCGGUGCGUCCUGGAUUCCACUGCUAUCCAC
Kobs ([1]; 0.5 mM Mg++): 0.84 ^−min
Kobs ([1]; 10 mM Mg++): 0.84 ^−min
B-gal expression [2]: dramatically reduced
cleavage activity, fold difference between functional and inactive rz (293 cells; rz at position E of pMD vector): 225 fold

B3: N117: N79 variant changed near the restriction insertion site, SEQ ID NO: 6 (nucleic acid)
chain: CUGAGAUGCAGGUACAUCCCACUGAUGAGUCCCAAAUAGGACGAAACGCGCUUCGGUGCGUCUGGGAUUCCACUGCUAUCCAC
modifications: expressed or natural sequence
cleavage activity, fold difference between functional and inactive rz (293 cells; rz at position E of pMD vector): further enhanced activity

B4: N99: N79 with changes in stem I near the core, SEQ ID NO: 6 (nucleic acid)
chain: CUGAGAUGCAGGUACAUCCCACUGAUGAGUCCCAAAUAGGACGAAACGCGCUUCGGUGCGUCUGGGAUUCCACUGCUAUCCAC
modifications: expressed or natural sequence
cleavage activity, fold difference between functional and inactive rz (293 cells; rz at position E of pMD vector): further enhanced activity

B5: N27: Sml with tetraloop 5′-UUCG-3′ grafted onto extended stem III, SEQ ID NO: 3 (nucleic acid)
chain: CUGAGAUGCAGGUACAUCCAGCUGACGAGUCCCAAAUAGGACGAAACGCCUUCGGGCGUCCUGGAUUCCACUGCUAUCCAC
modifications: expressed or natural sequence
Fold (suppression in reporter gene expression relative to the vector with inactive rz) (293 cells): 19 fold
cleavage activity, fold difference between functional and inactive rz (293 cells; [3]): 19 fold

B6: N93: N79 with shortened stem I, SEQ ID NO: 7 (nucleic acid)
chain: AGGUACAUCCAGCUGAUGAGUCCCAAAUAGGACGAAACGCGCUUCGGUGCGUCCUGGAUUCCACU
modifications: expressed or natural sequence
cleavage activity, fold difference between functional and inactive rz (293 cells; rz at position E of pMD vector): vastly reduced

B7: Cricket hammerhead: hammerhead Pst-3 rz from the Dolichopoda cave cricket, SEQ ID NO: 1 (nucleic acid)
chain: AUGUGUGUUCCCUCUGCCCCGCUGAUGAGGUCGGGGAGACCGAAAGGGUCAACUCUACGGGGCUAUUACAUGCAAU
modifications: expressed or natural sequence
Fold (suppression in reporter gene expression relative to the vector with inactive rz) (293 cells): 13 fold
cleavage activity, fold difference between functional and inactive rz (293 cells; [3]): 13 fold

B8: TRSV hammerhead: naturally occurring ribozyme, SEQ ID NO: 53 (nucleic acid)
chain: AUACCCUGUCACCGGAUGUGCUUUCCGGUCUGAUGAGUCCGUGAGGACGAAACAGGACUGUC
modifications: expressed or natural sequence
Fold (suppression in reporter gene expression relative to the vector with inactive rz) (293 cells): 1 fold
